What was measured:
[1] = Stability of the compound; assay type: physicochemical
[2] = Solubility of the compound in aqueous buffer; assay type: physicochemical
[3] = Distribution coefficient, log D of the compound at pH 7.4; assay type: physicochemical; conditions: octanol/water
[4] = Lipophilicity, log P of the compound; assay type: physicochemical; conditions: octanol/water
[5] = Cmax in Sprague-Dawley rat at 10 mg/kg, po administered as single dose by ESI-LC-MS/MS method; assay type: ADME, organism-based; set-up: dose 10 mg/kg, route oral; conditions: in vivo
[6] = Tmax in Sprague-Dawley rat at 10 mg/kg, po administered as single dose by ESI-LC-MS/MS method; assay type: ADME, organism-based; conditions: in vivo
[7] = Plasma concentration in Sprague-Dawley rat at 10 mg/kg, po after 24 hrs administered as single dose by ESI-LC-MS/MS method; assay type: ADME, organism-based
[8] = Half life in Sprague-Dawley rat at 10 mg/kg, po administered as single dose by ESI-LC-MS/MS method; assay type: ADME, organism-based; conditions: in vivo
[9] = Oral bioavailability in Sprague-Dawley rat at 10 mg/kg administered as single dose by ESI-LC-MS/MS method; assay type: ADME, organism-based; conditions: in vivo
[10] = Ratio of AUC in Sprague-Dawley rat at 100 mg/kg, po administered as single dose by ESI-LC-MS/MS method to AUC in Sprague-Dawley rat at 10 mg/kg, po administered as single dose by ESI-LC-MS/MS method; assay type: ADME, organism-based; conditions: in vivo
[11] = Ratio of Cmax in Sprague-Dawley rat at 100 mg/kg, po administered as single dose by ESI-LC-MS/MS method to Cmax in Sprague-Dawley rat at 10 mg/kg, po administered as single dose by ESI-LC-MS/MS method; assay type: ADME, organism-based; conditions: in vivo
[12] = Ratio of AUC in Sprague-Dawley rat at 300 mg/kg, po administered as single dose by ESI-LC-MS/MS method to AUC in Sprague-Dawley rat at 100 mg/kg, po administered as single dose by ESI-LC-MS/MS method; assay type: ADME, organism-based; conditions: in vivo
[13] = Tmax in Duroc Landrace pig at 3 mg/kg, po administered as single dose by ESI-LC-MS/MS method; assay type: ADME, organism-based, Sus scrofa; conditions: in vivo
[14] = Half life in Duroc Landrace pig at 3 mg/kg, po administered as single dose by ESI-LC-MS/MS method; assay type: ADME, organism-based, Sus scrofa; conditions: in vivo
[15] = Oral bioavailability in Duroc Landrace pig at 3 mg/kg administered as single dose by ESI-LC-MS/MS method; assay type: ADME, organism-based, Sus scrofa; conditions: in vivo
[16] = Oral bioavailability in urethane-chloralose anesthetized pig at 3 mg/kg, id; assay type: ADME, organism-based, Sus scrofa; conditions: in vivo
[17] = test system: Sus scrofa; experiment: Inhibition of upper airway collapsibility in urethane-chloralose anesthetized pig assessed as time duration for onset of action at 1 mg/kg, id after 4 hrs; assay type: functional
[18] = test system: Sus scrofa; experiment: Inhibition of upper airway collapsibility in urethane-chloralose anesthetized pig assessed as time duration for onset of action at 3 mg/kg, id after 4 hrs; assay type: functional
[19] = Toxicity in anesthetized mongrel dog assessed as induction of major hemodynamic changes at 10 mg/kg, iv; assay type: organism-based, Canis lupus familiaris; conditions: in vivo
[20] = Toxicity in anesthetized mongrel dog assessed as induction of major electrophysiological changes at 10 mg/kg, iv; assay type: organism-based, Canis lupus familiaris; conditions: in vivo

Stability [1]: Stable
solubility [2]: Soluble
logD [3]: 2.06
logP [4]: 2.05
Cmax [5]: 570 ng/mL
Tmax [6]: 1 h
concentration at 24 h [7]: < 1 ng/mL
half-life [8]: 2.7 h
bioavailability [9]: 42%
Ratio [10]: 2.3
Ratio [11]: 2.3
Ratio [12]: 1.1
Tmax [13]: 0.5 h
half-life [14]: 18 h
bioavailability [15]: 18 to 98%
bioavailability [16]: 61%
Structure (SMILES): Cc1nnc(C)n1-c1ccc(O[C@H]2c3cc(Cl)cc(Cl)c3C[C@@H]2N2CC[C@@H](O)C2)c(F)c1.O=P(O)(O)O
Time [17]: 1 h
Time [18]: 1.5 h
Activity [19]: Non-Toxic
Activity [20]: Non-Toxic
